The values below come from patent EP4722219A1 (Gan & Lee Pharmaceuticals Co., Ltd., priority 2023, dated 2024).

One experiment concerns LNCaP cells. The experiment is described as follows: Inhibition of LNCaP cell proliferation (WST-8). The experiment is classed as cell-based. The conditions noted are these: Homo sapiens, LNCaP FGC cells, 96 hours. A digest of the protocol: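 WST-8 absorbance at 450 nm measured proliferation after 96 h of compound exposure at 37 °C, 5% CO2. Dosing used nine 5-fold dilutions from a 10 µM top final concentration, applied to cells cultured overnight beforehand.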
For orientation: Tetrazolium assays rely on reduction of a dye to a coloured formazan, in cell work by metabolically active cells.

In another experiment the target is T1, AR protein (Homo sapiens, UniProt P10275).
T1 construct: host or cells: VCaP
T1 sequence (P10275 1-920): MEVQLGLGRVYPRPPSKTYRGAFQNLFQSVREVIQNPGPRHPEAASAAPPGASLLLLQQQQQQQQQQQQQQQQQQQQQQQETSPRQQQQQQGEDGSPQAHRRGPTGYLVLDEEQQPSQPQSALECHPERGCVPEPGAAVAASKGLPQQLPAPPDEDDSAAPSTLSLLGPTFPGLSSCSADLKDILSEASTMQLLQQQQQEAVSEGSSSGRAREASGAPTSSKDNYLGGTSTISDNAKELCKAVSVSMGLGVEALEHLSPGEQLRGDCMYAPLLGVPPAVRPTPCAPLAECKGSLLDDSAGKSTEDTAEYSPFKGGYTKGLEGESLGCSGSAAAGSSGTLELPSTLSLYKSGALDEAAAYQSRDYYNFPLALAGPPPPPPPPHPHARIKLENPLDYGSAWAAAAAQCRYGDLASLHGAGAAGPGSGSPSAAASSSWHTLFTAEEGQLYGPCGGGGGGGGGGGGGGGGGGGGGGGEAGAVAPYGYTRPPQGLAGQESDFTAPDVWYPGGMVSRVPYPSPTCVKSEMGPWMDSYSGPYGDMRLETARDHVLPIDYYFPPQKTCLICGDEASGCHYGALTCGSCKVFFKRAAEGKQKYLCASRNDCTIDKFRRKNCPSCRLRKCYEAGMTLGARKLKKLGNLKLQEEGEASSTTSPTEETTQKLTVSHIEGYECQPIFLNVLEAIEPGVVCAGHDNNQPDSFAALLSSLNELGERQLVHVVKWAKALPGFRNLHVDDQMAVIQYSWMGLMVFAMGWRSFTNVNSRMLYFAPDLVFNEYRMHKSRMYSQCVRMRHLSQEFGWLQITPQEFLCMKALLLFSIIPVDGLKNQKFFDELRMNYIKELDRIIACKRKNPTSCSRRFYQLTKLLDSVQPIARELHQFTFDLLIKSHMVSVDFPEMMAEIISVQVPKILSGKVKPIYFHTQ
The experiment is described as follows: AR protein degradation in VCaP cells (Western blot). The experiment is classed as cell-based. The conditions noted are these: 8h. A digest of the protocol:
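AR-positive VCaP human prostate cancer cells grown in DMEM with 10% FBS were plated in six-well plates at 3×10^5 cells/well and incubated overnight. Compounds were then added at 1 µL/well alongside a solvent control and incubated for 8h. Lysates in RIPA buffer with protease inhibitor were quantified by BCA and run by SDS-PAGE. AR was detected by Western blot, and degradation was calculated from band grayscale normalized to GAPDH.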

Broadly, the IC50 is the point on the concentration scale where inhibition reaches its midpoint. In the experiment on LNCaP cells, `C[C@H]1CC2(CCN(c3ccc(N4CCC(CN5CCC6(CCc7cc(C(=O)N[C@H]8CCC(=O)NC8=O)c(F)cc7O6)CC5)CC4)cc3)CC2)CN1c1ccc(C#N)c(Cl)c1` [A-P-42, 1'-((1-(4-((S)-2-(3-chloro-4-cyanophenyl)-3-methyl-2,8-diazaspiro[4.5]decan-8-yl)phenyl)piperidin-4-yl)methyl)-N-((S)-2,6-dioxopiperidin-3-yl)-7-fluorospiro[chroman-2,4'-piperidin]-6-carboxamide] had an IC50 of 0.19 µM. Moreover, the AR protein degradation rate at fixed concentration (%) at 0.0005 µM on AR protein (0.5 nM) is -40%. Besides, at AR protein (5 nM), the AR protein degradation rate at fixed concentration (%) at 0.005 µM is -4%.

`COc1cc(O[C@H]2C(C)(C)[C@H](NC(=O)c3ccc(N4CCC(C)(CN5CCC6(CCc7cc(C(=O)N[C@H]8CCC(=O)NC8=O)c(F)cc7O6)CC5)CC4)cn3)C2(C)C)ccc1C#N` [A-P-43, 1'-((1-(6-(((1r,3r)-3-(4-cyano-3-methoxyphenoxy)-2,2,4,4-tetramethylcyclobutyl)carbamoyl)pyridin-3-yl)-4-methylpiperidin-4-yl)methyl)-N-((S)-2,6-dioxopiperidin-3-yl)-7-fluorospiro[chroman-2,4'-piperidin]-6-carboxamide] returned an IC50 in the experiment with LNCaP cells of 0.36 µM. Besides, the “Degradation rate of AR protein in VCaP cells” value (from here on “Degradation rate of AR protein”) at AR protein (0.5 nM) amounted to 33%; at AR protein (5 nM), 32%.

As for `CC1(C)[C@H](NC(=O)c2ccc(N3CCC(CN4CCC5(CCc6cc(C(=O)N[C@H]7CCC(=O)NC7=O)c(F)cc6O5)CC4)CC3)nc2)C(C)(C)[C@H]1Oc1ccc(C#N)c(C(F)(F)F)c1` [A-P-45, 1'-((1-(5-(((1R,3R)-3-(4-cyano-3-(trifluoromethyl)phenoxy)-2,2,4,4-tetramethylcyclobutyl)carbamoyl)pyridin-2-yl)piperidin-4-yl)methyl)-N-((S)-2,6-dioxopiperidin-3-yl)-7-fluorospiro[chroman-2,4'-piperidin]-6-carboxamide], the concentration for half-maximal inhibition (IC50) in the experiment on LNCaP cells came to 0.57 µM. In addition, the “Degradation rate of AR protein” value is 44% at AR protein (0.5 nM) and 77% at AR protein (5 nM).

`COc1cc(O[C@H]2C(C)(C)[C@H](NC(=O)c3ccc(N4CCC(C)(CN5CCC6(CCc7cc(C(=O)N[C@H]8CCC(=O)NC8=O)c(F)cc7O6)CC5)CC4)nn3)C2(C)C)ccc1C#N` [A-P-48, 1'-((1-(6-(((1R,3R)-3-(4-cyano-3-methoxyphenoxy)-2,2,4,4-tetramethylcyclobutyl)carbamoyl)pyridazin-3-yl)-4-methylpiperidin-4-yl)methyl)-N-((S)-2,6-dioxopiperidin-3-yl)-7-fluorospiro[chroman-2,4'-piperidin]-6-carboxamide] gave an IC50 with LNCaP cells of 0.86 µM. Further, the entries for the “Degradation rate of AR protein” value at AR protein (0.5 nM) and on AR protein (5 nM) were -23% and -1%, respectively.

`COc1cc(O[C@H]2C(C)(C)[C@H](NC(=O)c3ccc(N4CCC(C)(CN5CCC6(CCc7cc(C(=O)N[C@H]8CCC(=O)NC8=O)c(F)cc7O6)CC5)CC4)nc3)C2(C)C)ccc1C#N` [A-P-49, 1'-((1-(5-(((1R,3R)-3-(4-cyano-3-methoxyphenoxy)-2,2,4,4-tetramethylcyclobutyl)carbamoyl)pyridin-2-yl)-4-methylpiperidin-4-yl)methyl)-N-((S)-2,6-dioxopiperidin-3-yl)-7-fluorospiro[chroman-2,4'-piperidin]-6-carboxamide] displayed an IC50 with LNCaP cells of 0.6 µM. For the same molecule, the “Degradation rate of AR protein” value is -15% on AR protein (0.5 nM) and 45% on AR protein (5 nM).

`CC1(C)[C@H](NC(=O)c2ccc(N3CCC(CN4CCC5(CCc6cc(C(=O)N[C@H]7CCC(=O)NC7=O)c(F)cc6O5)CC4)CC3)nc2)C(C)(C)[C@H]1Oc1ccc(C#N)c(Cl)c1` [A-P-50, 1'-((1-(5-(((1R,3R)-3-(3-chloro-4-cyanophenoxy)-2,2,4,4-tetramethylcyclobutyl)carbamoyl)pyridin-2-yl)piperidin-4-yl)methyl)-N-((S)-2,6-dioxopiperidin-3-yl)-7-fluorospiro[chroman-2,4'-piperidin]-6-carboxamide]: the IC50 in the experiment on LNCaP cells was determined as 0.18 µM. Moreover, the “Degradation rate of AR protein” value at AR protein (0.5 nM) is on record as 84%; at AR protein (5 nM), 87%.

In turn, `COc1cc(O[C@H]2C(C)(C)[C@H](NC(=O)c3ccc(N4CCC(F)(CN5CCC6(CCc7cc(C(=O)N[C@H]8CCC(=O)NC8=O)c(F)cc7O6)CC5)CC4)cc3)C2(C)C)ccc1C#N` [A-P-52, 1'-((1-(4-(((1r,3r)-3-(4-cyano-3-methoxyphenoxy)-2,2,4,4-tetramethylcyclobutyl)carbamoyl)phenyl)-4-fluoropiperidin-4-yl)methyl)-N-((S)-2,6-dioxopiperidin-3-yl)-7-fluorospiro[chroman-2,4'-piperidin]-6-carboxamide] gave an IC50 in the experiment on LNCaP cells of 0.2 µM. The “Degradation rate of AR protein” value was -1% at AR protein (0.5 nM) and 14% at AR protein (5 nM).

The molecule `COc1cc(O[C@H]2C(C)(C)[C@H](NC(=O)c3ccc(N4CCC(CN5CCN6c7ccc(C(=O)N[C@H]8CCC(=O)NC8=O)cc7OC[C@@H]6C5)CC4)cc3)C2(C)C)ccc1C#N` [A-P-67] showed an IC50 in the experiment on LNCaP cells of 7.22 µM. Besides, the “Degradation rate of AR protein” value is 20% on AR protein (0.5 nM) and 70% on AR protein (5 nM).

For the molecule `C[C@H]1CC2(CCN(c3ccc(C(=O)N4CCC(CN5CCN6c7ccc(C(=O)N[C@H]8CCC(=O)NC8=O)cc7OC[C@H]6C5)CC4)cc3)CC2)CN1c1ccc(C#N)c(Cl)c1` [A-P-68], in the experiment with LNCaP cells, 0.97 µM corresponded to half-maximal inhibition (IC50). Moreover, the “Degradation rate of AR protein” value came to 5% on AR protein (0.5 nM) and 33% at AR protein (5 nM).

On to `C[C@H]1CC2(CCN(c3ccc(C(=O)N4CCC(CN5CCN6c7ccc(C(=O)N[C@H]8CCC(=O)NC8=O)cc7OC[C@@H]6C5)CC4)cc3)CC2)CN1c1ccc(C#N)c(Cl)c1` [A-P-69], for which the IC50 in the experiment with LNCaP cells amounted to 0.28 µM. Besides, the figures for the “Degradation rate of AR protein” value on AR protein (0.5 nM) and at AR protein (5 nM) were -9% and 18%, respectively.

`COc1cc(O[C@H]2C(C)(C)[C@H](NC(=O)c3ccc(N4CCC(CN5CCC6(CC5)COc5c6ccc(C(=O)N[C@H]6CCC(=O)NC6=O)c5F)CC4)cc3)C2(C)C)ccc1C#N` [A-P-83]: in the experiment on LNCaP cells, the IC50 came to 0.71 µM. In addition, the “Degradation rate of AR protein” value on AR protein (0.5 nM) is 36%; at AR protein (5 nM) it was 66%.

`COc1cc(O[C@H]2C(C)(C)[C@H](NC(=O)c3ccc(N4CCC(F)(CN5CCC6(CC5)COc5c6ccc(C(=O)N[C@H]6CCC(=O)NC6=O)c5F)CC4)cc3)C2(C)C)ccc1C#N` [A-P-84] gave an IC50 in the experiment on LNCaP cells of 0.11 µM. Besides, the “Degradation rate of AR protein” value at AR protein (0.5 nM) is listed as -14%; on AR protein (5 nM) it was -17%.

In the experiment with LNCaP cells, `COc1cc(O[C@H]2C(C)(C)[C@H](NC(=O)c3ccc(N4CCC(C)(CN5CCC6(CC5)COc5c6ccc(C(=O)N[C@H]6CCC(=O)NC6=O)c5F)CC4)cc3)C2(C)C)ccc1C#N` [A-P-85, 1'-((1-(4-(((1r,3r)-3-(4-cyano-3-methoxyphenoxy)-2,2,4,4-tetramethylcyclobutyl)carbamoyl)phenyl)-4-methylpiperidin-4-yl)methyl)-N-((S)-2,6-dioxopiperidin-3-yl)-7-fluoro-2H-spiro[benzofuran-3,4'-piperidin]-6-carboxamide] gave an IC50 of 0.29 µM. Also, the “Degradation rate of AR protein” value is 18% on AR protein (0.5 nM) and 34% at AR protein (5 nM).

For the molecule `COc1cc(O[C@H]2C(C)(C)[C@H](NC(=O)c3ccc(N4CCC(CN5CCC6(CC5)COc5c6ccc(C(=O)N[C@H]6CCC(=O)NC6=O)c5F)(OC)CC4)cc3)C2(C)C)ccc1C#N` [A-P-86, 1'-((1-(4-(((1r,3r)-3-(4-cyano-3-methoxyphenoxy)-2,2,4,4-tetramethylcyclobutyl)carbamoyl)phenyl)-4-methoxypiperidin-4-yl)methyl)-N-((S)-2,6-dioxopiperidin-3-yl)-7-fluoro-2H-spiro[benzofuran-3,4'-piperidin]-6-carboxamide], the midpoint of inhibition in the experiment on LNCaP cells, the IC50, lay at 0.39 µM. Besides, the “Degradation rate of AR protein” value is listed as -30% at AR protein (0.5 nM) and 1% at AR protein (5 nM).

In turn, `COc1cc(O[C@H]2C(C)(C)[C@H](NC(=O)c3ccc(N4CCC(CN5CCN6c7ccc(N[C@H]8CCC(=O)NC8=O)cc7OC[C@@H]6C5)CC4)cc3)C2(C)C)ccc1C#N` [A-P-100] registered an IC50 in the experiment with LNCaP cells of 0.38 µM. Further, the results for the “Degradation rate of AR protein” value on AR protein (0.5 nM) and on AR protein (5 nM) were -20% and 21%, respectively.
